In patent US11434537B2, “Biomarker for prognosis of colorectal cancer” (NATIONAL CHENG KUNG UNIVERSITY, priority 2020, dated 2022):

How the values were obtained:
Assay type in all cases: cell-based, human
HCT116 cells [1] = experiment: Wound-healing and Transwell migration assays, HCT116; settings: 10 μM for 48 h, HCT116 stable cells, wound healing 24 h (FIG. 14(e))
Procedure: Then, HCT116 cells transfected with miR-338-5p were assessed for cell migration in vitro with a wound-healing assay analyzed at 24 h and a Transwell assay analyzed at 48 h (Corning, Corning City, N.Y.). Cell invasion in vitro was estimated using a Transwell assay, in which cells were seeded on Transwell columns coated with a Matrigel membrane (BD Biosciences, San Jose, Calif.). Then, cells on the bottom of membrane were counted after 96 h. […] Thus, miR-338-5p promotes CRC migration and invasion in vitro.

SW480 cells = experiment: Transwell migration assay, SW480; settings: 10 μM, Transwell (FIG. 14(c))
HCT116 cells [2] = experiment: Transwell invasion assay, HCT116; settings: amiodarone-treated HCT116 cells, Transwell invasion 48 h (FIG. 14(f))
Procedure: (§1) FIGS. 14(a) to 14(f) show the involvement of autophagy in miR-338-5p-related CRC migration and invasion in vitro. […] LC3 puncta were labelled with anti-LC3 antibody and fluorescent isothiocyanate-conjugated goat anti-rabbit IgG (green fluorescence). SW480 cell nuclei were stained with Hoechst 33258 (blue fluorescence). Images were photographed using florescent microscopy (the scale bar represents 10 μm). Data are presented as median (IQR) (n=5) (P value was analyzed using Mann-Whitney tests). […] (100 nM). […] Data are presented as median (IQR) (n=5) (P value was analyzed using Mann-Whitney tests). The scale bar represents 50 μm. […] Number of migrated cells was counted after 24 h. The scale bar represents 100 μm. Data are expressed as median (IQR) (n=6) (P value was analyzed using MannWhitney tests). […] The scale bar represents 50 μm. Data are expressed as means±SEM (n=8) (P value was analyzed using t tests).
(§2) To clarify the mechanism(s) underlying miR-338-5p induced migration and invasion of CRC, the involvement of autophagy was assessed. Specifically, the LC3 puncta (microtubule associated protein 1A/1B-LC3) formation and LC3 type II (LC3-II) protein expression were examined in cells treated with amiodarone (an autophagy inducer) by immunofluorescent assay.

LC3 puncta = LC3 puncta formation by immunofluorescent assay; settings: 10 μM, SW480 cells
Procedure: as §1, §2

LC3-II = experiment: Western blot of LC3-II (autophagy); settings: 10 μM, 48 h, CRC cells (SW480, HCT116)
Procedure: as §1
FIGS. 15(a) to 15(c) show the involvement of autophagy or EMT pathway in miR-338-5p-related CRC migration in vitro. […] Representative results of Transwell assays are also shown. […] Data are presented as means±SEM (n=8) (P values were analyzed using t tests). […] The number of migrated cells is shown as means±SEM (n=8) (P values were analyzed using t tests).
To clarify the mechanism(s) underlying miR-338-5p induced migration and invasion of CRC, the involvement of autophagy was assessed. […]

CCCCc1oc2ccccc2c1C(=O)c1cc(I)c(OCCN(CC)CC)c(I)c1 [Amiodarone, amiodarone]
cell migration (HCT116 cells [1]): inhibition of cell migration
cell migration (SW480 cells): inhibition of cell migration
cell invasion (HCT116 cells [2]): inhibition of cell invasion
LC3 puncta formation (LC3 puncta): induced LC3 puncta formation
LC3-II expression (LC3-II): activated LC3-II expression
